# Article PMC8523698, “Preclinical characterization of an intravenous coronavirus 3CL protease inhibitor for the potential treatment of COVID19” (Nature Communications, 2021)
# Where “and” joins values, the source holds several entries; their conditions need not be identical. Identical values can stand only once. Like-named read-outs stand apart in the source and are kept apart here.
# Assays:
# IBV-CoV 3CL^pro = IBV-CoV 3CL^pro (Avian infectious bronchitis virus, UniProt P0C6Y1); assay: biochemical; conditions: for Initial Velocity: triplicate, listed as Compound F2
# NL63-CoV 3CL^pro = NL63-CoV 3CL^pro (Human coronavirus NL63, UniProt P0C6X5); assay type: biochemical
# SARS-CoV-2 [1] = tested on: SARS-CoV-2; parameters: method as in earlier work; conditions: preliminary data; read-out: unbound EC90; cited from earlier work
# HKU1-CoV 3CL^pro = HKU1-CoV 3CL^pro (Human coronavirus HKU1, UniProt P0C6X2); assay: biochemical
# SARS-CoV-2 [2] = assay: microbe, parasite or virus in culture; assay type: cell-based; conditions: Severe acute respiratory syndrome coronavirus 2, Vero C1008; N=3; read-out: EC50 ± Std. Dev
# [3] = Metabolic stability in pooled human liver microsomes (intrinsic clearance); conditions: both, pH 7.5
# HKU9-CoV 3CL^pro = HKU9-CoV 3CL^pro (Bat coronavirus HKU9, UniProt P0C6W5); assay type: biochemical; conditions: for Initial Velocity: triplicate, listed as Compound F2
# CYP3A4/5 = CYP3A4/5 (Homo sapiens, UniProt P08684); assay: Reversible CYP inhibition in human liver microsomes
# [4] = Rat 4-day continuous intravenous infusion exploratory non-GLP toxicity study
# PEDV 3CL^pro = PEDV 3CL^pro (Porcine epidemic diarrhea virus, UniProt P0C6Y4); assay type: biochemical
# FIPV 3CL^pro = FIPV 3CL^pro (Feline coronavirus, UniProt Q98VG9); assay type: biochemical
# HKU5-CoV 3CL^pro = HKU5-CoV 3CL^pro (Bat coronavirus HKU5, UniProt P0C6W4); assay type: biochemical; conditions: for Initial Velocity: triplicate, listed as Compound F2
# SARS-CoV-2 USA-WA1/2020 = assay: Ad5-hACE2 SARS-CoV-2 mouse infection model; assay type: in vivo, BALB/c mice; conditions: 100 mg/kg BID from day 0; lungs day 3; individual mice
# [5] = Metabolic stability and enzyme kinetics in liver S9 (conversion to PF-00835231); conditions: for microsomal CLint / Km at 20 min: rat
# [6] = as above
# [7] = Liver S9 binding by equilibrium dialysis; conditions: for recovery at 6 h: human liver S9, %Recovery
# [8] = Rat 24-h continuous intravenous infusion GLP toxicity study; assay type: in vivo, Sprague-Dawley rats; conditions: in vivo
# [9] = Metabolic stability and enzyme kinetics in liver S9 (conversion to PF-00835231); conditions: for Km at 20 min / microsomal CLint: dog
# [10] = In vitro blood to plasma ratio; assay type: in vitro ADME; conditions: for Plasma concentration (Cp) / Whole blood concentration (Cb): human blood, substrate 1 µM
# [11] = Cytotoxicity in MRC-5 cells; conditions: human
# [12] = liver S9, pH 7.5, CL, unsaturable component, best-fit
# [13] = liver S9, pH 7.5, CLintu (unbound CLint)
# Chain of HKU9-CoV 3CL^pro (P0C6W5 3104-3409 limits assumed): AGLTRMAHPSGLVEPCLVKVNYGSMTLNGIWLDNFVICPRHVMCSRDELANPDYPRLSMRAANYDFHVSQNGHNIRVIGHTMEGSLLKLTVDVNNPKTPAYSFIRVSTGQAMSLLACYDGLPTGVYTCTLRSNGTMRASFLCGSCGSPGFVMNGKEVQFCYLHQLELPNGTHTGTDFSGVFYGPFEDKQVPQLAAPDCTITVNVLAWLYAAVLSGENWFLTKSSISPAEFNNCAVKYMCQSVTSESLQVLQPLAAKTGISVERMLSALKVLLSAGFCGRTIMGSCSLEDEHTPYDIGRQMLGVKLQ
# Chain of IBV-CoV 3CL^pro (P0C6Y1 2780-3086): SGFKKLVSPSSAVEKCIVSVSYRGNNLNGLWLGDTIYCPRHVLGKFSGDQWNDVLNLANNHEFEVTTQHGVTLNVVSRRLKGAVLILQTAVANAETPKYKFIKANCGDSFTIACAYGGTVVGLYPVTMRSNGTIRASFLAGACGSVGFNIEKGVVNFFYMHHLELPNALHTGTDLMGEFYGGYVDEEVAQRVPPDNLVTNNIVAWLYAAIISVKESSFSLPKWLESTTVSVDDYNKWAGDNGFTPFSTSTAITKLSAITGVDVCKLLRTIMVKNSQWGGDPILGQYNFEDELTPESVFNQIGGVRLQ
# Chain of HKU5-CoV 3CL^pro (P0C6W4 3339-3644 limits assumed): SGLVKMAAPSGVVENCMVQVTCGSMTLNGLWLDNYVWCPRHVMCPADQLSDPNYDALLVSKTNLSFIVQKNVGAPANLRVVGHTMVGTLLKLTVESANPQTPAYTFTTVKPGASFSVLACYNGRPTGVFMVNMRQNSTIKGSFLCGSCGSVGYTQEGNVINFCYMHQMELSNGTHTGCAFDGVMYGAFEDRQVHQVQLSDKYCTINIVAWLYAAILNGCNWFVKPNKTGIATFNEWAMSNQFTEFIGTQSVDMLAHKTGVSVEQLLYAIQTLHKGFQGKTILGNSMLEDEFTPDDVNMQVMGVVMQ
# Chain of HKU1-CoV 3CL^pro (P0C6X2 3335-3637): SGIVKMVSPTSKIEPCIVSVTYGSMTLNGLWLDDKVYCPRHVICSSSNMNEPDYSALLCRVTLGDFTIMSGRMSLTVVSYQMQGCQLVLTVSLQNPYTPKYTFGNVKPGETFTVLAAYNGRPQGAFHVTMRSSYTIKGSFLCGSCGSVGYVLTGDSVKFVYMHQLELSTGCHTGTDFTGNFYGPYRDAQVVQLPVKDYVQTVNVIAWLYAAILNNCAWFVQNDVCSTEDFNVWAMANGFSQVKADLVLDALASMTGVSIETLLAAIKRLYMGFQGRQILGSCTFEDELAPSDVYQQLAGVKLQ
# Chain of FIPV 3CL^pro (Q98VG9 2904-3205): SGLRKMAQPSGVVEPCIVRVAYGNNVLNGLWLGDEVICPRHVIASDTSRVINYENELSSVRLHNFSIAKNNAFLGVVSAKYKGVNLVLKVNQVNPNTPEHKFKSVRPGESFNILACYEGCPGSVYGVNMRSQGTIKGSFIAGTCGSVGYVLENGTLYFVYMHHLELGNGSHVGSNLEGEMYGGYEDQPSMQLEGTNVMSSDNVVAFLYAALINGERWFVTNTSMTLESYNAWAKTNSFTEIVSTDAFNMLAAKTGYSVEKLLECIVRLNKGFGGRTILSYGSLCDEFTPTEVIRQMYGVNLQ
# Chain of CYP3A4/5 (P08684 whole entry, the tested form may be a part): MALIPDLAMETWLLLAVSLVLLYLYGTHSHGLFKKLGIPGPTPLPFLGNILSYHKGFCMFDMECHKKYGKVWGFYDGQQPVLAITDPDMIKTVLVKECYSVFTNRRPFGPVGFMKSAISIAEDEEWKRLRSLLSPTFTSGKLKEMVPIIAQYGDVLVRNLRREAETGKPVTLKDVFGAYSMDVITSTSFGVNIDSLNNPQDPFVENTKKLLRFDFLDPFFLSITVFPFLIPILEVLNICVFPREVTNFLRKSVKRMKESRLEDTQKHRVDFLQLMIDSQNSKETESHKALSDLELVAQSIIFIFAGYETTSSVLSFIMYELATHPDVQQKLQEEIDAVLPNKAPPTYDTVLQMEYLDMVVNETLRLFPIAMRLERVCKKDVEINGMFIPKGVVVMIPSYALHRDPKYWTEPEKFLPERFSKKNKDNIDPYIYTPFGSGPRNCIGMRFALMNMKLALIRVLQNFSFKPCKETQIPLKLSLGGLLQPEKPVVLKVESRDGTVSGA
# Chain of PEDV 3CL^pro (P0C6Y4 2998-3299): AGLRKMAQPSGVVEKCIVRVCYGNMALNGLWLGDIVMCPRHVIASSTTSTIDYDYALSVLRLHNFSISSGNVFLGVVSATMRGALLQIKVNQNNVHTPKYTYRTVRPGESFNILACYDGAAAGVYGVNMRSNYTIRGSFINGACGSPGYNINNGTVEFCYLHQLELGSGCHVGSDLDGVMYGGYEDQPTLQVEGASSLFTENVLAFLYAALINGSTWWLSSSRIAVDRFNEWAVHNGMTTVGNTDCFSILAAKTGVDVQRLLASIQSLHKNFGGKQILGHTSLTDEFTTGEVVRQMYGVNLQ
# Chain of NL63-CoV 3CL^pro (P0C6X5 2940-3242): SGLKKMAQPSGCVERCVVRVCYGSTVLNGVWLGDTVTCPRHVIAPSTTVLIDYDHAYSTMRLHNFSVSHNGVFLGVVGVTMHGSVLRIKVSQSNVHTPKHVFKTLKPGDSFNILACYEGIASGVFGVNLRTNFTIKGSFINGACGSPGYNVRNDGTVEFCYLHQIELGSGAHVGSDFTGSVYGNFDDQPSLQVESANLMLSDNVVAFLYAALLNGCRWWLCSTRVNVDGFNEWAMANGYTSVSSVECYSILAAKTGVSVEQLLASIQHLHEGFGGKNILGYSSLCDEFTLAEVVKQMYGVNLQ
structure (smiles),measurement,setting,value
COc1cccc2[nH]c(C(=O)N[C@@H](CC(C)C)C(=O)N[C@@H](C[C@@H]3CCNC3=O)C(=O)CO)cc12 [PF-00835231],CC50,"in vitro; African green monkey, CC50",> 100000 nM
same,CC50,"in vitro; monkey, CC50 GeoMean (95% CI)",> 100000 nM
same,CC50,VeroE6-EGFP cells; African green monkey,> 50000 nM
same,CC50,VeroE6-EGFP cells; monkey,> 50000 nM
same,Ki,IBV-CoV 3CL^pro,4 ± 0.37 nM
same,Initial Velocity,IBV-CoV 3CL^pro; [Compound F2] 1.95312 nM,0.9151 and 0.9223 and 0.9303
same,Initial Velocity,IBV-CoV 3CL^pro; [Compound F2] 3.90625 nM,0.8719 and 0.9093 and 0.9026
same,Initial Velocity,IBV-CoV 3CL^pro; [Compound F2] 7.8125 nM,0.7237 and 0.7704 and 0.7494
same,Initial Velocity,IBV-CoV 3CL^pro; [Compound F2] 31.25 nM,0.2801 and 0.2824 and 0.2905
same,Initial Velocity,IBV-CoV 3CL^pro; [Compound F2] 62.5 nM,0.09406 and 0.0968 and 0.1078
same,Initial Velocity,IBV-CoV 3CL^pro; [Compound F2] 250 nM,0.02135 and 0.01561 and 0.01396
same,Ki,NL63-CoV 3CL^pro,0.77 ± 0.52 nM
same,EC90,SARS-CoV-2 [1],< 500 nM
same,Ki,HKU1-CoV 3CL^pro,0.85 ± 0.24 nM
same,EC50,SARS-CoV-2 [2],60 ± 30 nM
same,microsomal CLint at 1 µM,[3]; liver microsomes,14 µL/min/mg
same,microsomal CLint at 1 µM,[3]; pooled human liver microsomes,7.5 µL/min/mg
same,Initial Velocity,HKU9-CoV 3CL^pro; [Compound F2] 1.95312 nM,0.9878 and 0.9959 and 0.983
same,Initial Velocity,HKU9-CoV 3CL^pro; [Compound F2] 3.90625 nM,0.9913 and 0.9924 and 0.95
same,Initial Velocity,HKU9-CoV 3CL^pro; [Compound F2] 7.8125 nM,0.9224 and 0.9795 and 0.9137
same,Initial Velocity,HKU9-CoV 3CL^pro; [Compound F2] 20 nM,0.886 and 0.9243 and 0.93
same,Initial Velocity,HKU9-CoV 3CL^pro; [Compound F2] 30 nM,0.8569 and 0.8538 and 0.879
same,Initial Velocity,HKU9-CoV 3CL^pro; [Compound F2] 31.25 nM,0.8589 and 0.8929 and 0.8492
same,Initial Velocity,HKU9-CoV 3CL^pro; [Compound F2] 40 nM,0.8139 and 0.8202 and 0.8114
same,Initial Velocity,HKU9-CoV 3CL^pro; [Compound F2] 50 nM,0.7816 and 0.7894 and 0.7901
same,Initial Velocity,HKU9-CoV 3CL^pro; [Compound F2] 60 nM,0.7312 and 0.6789 and 0.7455
same,Initial Velocity,HKU9-CoV 3CL^pro; [Compound F2] 62.5 nM,0.7579 and 0.8162 and 0.7406
same,Initial Velocity,HKU9-CoV 3CL^pro; [Compound F2] 80 nM,0.682 and 0.6702 and 0.6841
same,Initial Velocity,HKU9-CoV 3CL^pro; [Compound F2] 100 nM,0.6302 and 0.62 and 0.5903
same,Initial Velocity,HKU9-CoV 3CL^pro; [Compound F2] 200 nM,0.2879 and 0.279 and 0.2522
same,Initial Velocity,HKU9-CoV 3CL^pro; [Compound F2] 1000 nM,0.000466 and 0.000256
same,Ki,HKU9-CoV 3CL^pro; mean ± SEM,0.74 ± 0.68 nM
same,Ki,CYP3A4/5,108000 nM
same,tolerated dose (highest feasible dose tested),"[4]; male rats, 4 days continuous IV infusion",246 mg/kg/day
same,cholesterol vs controls,[4]; non-adverse,1.3 x
same,mean triglycerides vs controls,[4]; non-adverse,1.9-3.6 x
same,phosphorus vs controls,[4]; non-adverse,1.1 x
same,Ki,PEDV 3CL^pro,0.3 ± 0.11 nM
same,Ki,FIPV 3CL^pro,0.12 ± 0.1 nM
same,Initial Velocity,HKU5-CoV 3CL^pro; [Compound F2] 1.95312 nM,0.9802 and 1.028 and 0.9544
same,Initial Velocity,HKU5-CoV 3CL^pro; [Compound F2] 3.90625 nM,0.9722 and 0.992 and 0.9888
same,Initial Velocity,HKU5-CoV 3CL^pro; [Compound F2] 7.8125 nM,0.8869 and 0.9497 and 0.9402
same,Initial Velocity,HKU5-CoV 3CL^pro; [Compound F2] 20 nM,0.7838 and 0.8106 and 0.827
same,Initial Velocity,HKU5-CoV 3CL^pro; [Compound F2] 30 nM,0.6911 and 0.6076 and 0.6927
same,Initial Velocity,HKU5-CoV 3CL^pro; [Compound F2] 31.25 nM,0.6277 and 0.6613 and 0.6251
same,Initial Velocity,HKU5-CoV 3CL^pro; [Compound F2] 40 nM,0.5119 and 0.5104 and 0.5524
same,Initial Velocity,HKU5-CoV 3CL^pro; [Compound F2] 50 nM,0.32 and 0.3287 and 0.3636
same,Initial Velocity,HKU5-CoV 3CL^pro; [Compound F2] 62.5 nM,0.1843 and 0.2599 and 0.2229
same,Initial Velocity,HKU5-CoV 3CL^pro; [Compound F2] 80 nM,0.01707 and 0.01468 and 0.01576
same,Initial Velocity,HKU5-CoV 3CL^pro; [Compound F2] 100 nM,0.01024 and 0.007665 and 0.009516
same,Initial Velocity,HKU5-CoV 3CL^pro; [Compound F2] 200 nM,0.003343 and 0.002684 and 0.002549
same,Initial Velocity,HKU5-CoV 3CL^pro; [Compound F2] 300 nM,0.000987 and 0.001807 and 0.00196
same,Initial Velocity,HKU5-CoV 3CL^pro; [Compound F2] 400 nM,0.002007 and 0.00134 and 0.002594
same,Ki,HKU5-CoV 3CL^pro; mean ± SEM,0.033 nM
same,Lung viral titers,SARS-CoV-2 USA-WA1/2020,160 IU/mL and 240 IU/mL and 110 IU/mL and 3500 IU/mL and 1600 IU/mL and 1100 IU/mL
COc1cccc2[nH]c(C(=O)N[C@@H](CC(C)C)C(=O)N[C@@H](C[C@@H]3CCNC3=O)C(=O)COP(=O)(O)O)cc12 [PF-07304814],Vmax,"[5]; Rat, best-fit, Two enzyme: MM + Unsaturable",2188 pmol/min/mg
same,microsomal CLint,[5]; [12],4.56 µL/min/mg
same,microsomal CLint,"[5]; liver S9, pH 7.5, CLint total, Rat, (vmax / KM) + CL",45.5 µL/min/mg
same,microsomal CLint,"[5]; liver S9, pH 7.5, CLint,2, low affinity kinetic component",4.56 µL/min/mg
same,microsomal CLint,"[5]; liver S9, pH 7.5, CLint,app",45.5 µL/min/mg
same,microsomal CLint,[5]; [13],51 µL/min/mg
same,Km at 20 min,"[5]; rat liver S9, pH 7.5, KM",53.4 µM
same,Km at 20 min,"[5]; rat liver S9, pH 7.5, Km, Rat, best-fit, Two enzyme: MM + Unsaturable",53.4 µM
same,Vmax,"[6]; Cyno, best-fit, Two enzyme: MM + Unsaturable",1186 pmol/min/mg
same,microsomal CLint,"[6]; cynomolgus monkey, liver S9, pH 7.5, CL, Cyno, unsaturable component, best-fit",3.06 µL/min/mg
same,microsomal CLint,"[6]; cynomolgus monkey, liver S9, pH 7.5, CLint total, Cyno, (vmax / KM) + CL",150 µL/min/mg
same,microsomal CLint,"[6]; monkey, liver S9, pH 7.5, CLint,2, low affinity kinetic component",3.06 µL/min/mg
same,microsomal CLint,"[6]; monkey, liver S9, pH 7.5, CLint,app",150 µL/min/mg
same,microsomal CLint,"[6]; monkey, liver S9, pH 7.5, CLintu (unbound CLint)",168 µL/min/mg
same,Km at 20 min,"[6]; monkey, monkey liver S9, pH 7.5",8.1 µM
same,Hum liver S9 binding,[7]; clearance input,0.89
same,%Stability,"[7]; human liver S9 matrix, n=4",98%
same,recovery at 6 h,"[7]; human, human liver S9 binding, MEAN, n 4",94%
same,recovery at 6 h,"[7]; human, human liver S9 binding, individual replicates",95%
same,fraction unbound at 6 h,"[7]; human, human liver S9, fu MEAN, human liver S9, mean, n=4",0.89
same,fraction unbound at 6 h,"[7]; human, human liver S9, fu, human liver S9, individual replicates 1-4",0.902
same,fraction unbound at 6 h,"[7]; human, human liver S9, fu, human liver S9 binding, MEAN, n 4",0.89
same,fraction unbound at 6 h,"[7]; human, human liver S9, fu, human liver S9 binding, individual replicates",0.867
same,"fraction unbound at 6 h, 2 µM","[7]; human, liver S9, Unbound fraction fu (%CV), human liver S9, 0.03mg/mL protein, 2 µM substrate",0.89
same,"%Recovery, human liver S9 binding",[7]; individual replicates,88% and 99%
same,"fu, human liver S9 binding",[7]; individual replicates,0.888
same,"%Stability, human liver S9 binding","[7]; mean, n 4",98%
same,NOAEL at 24 h,"[8]; both sexes, Sprague-Dawley, 24 h continuous IV infusion, read-out: no observed adverse effect level (NOAEL)",1000 mg/kg
same,toxicity findings,[8],no test article related findings
same,Vmax,"[9]; Dog, best-fit, Two enzyme: MM + Unsaturable",213.7 pmol/min/mg
same,Km at 20 min,"[9]; dog liver S9, pH 7.5, KM",2.91 µM
same,Km at 20 min,"[9]; dog liver S9, pH 7.5, Km, Dog, best-fit, Two enzyme: MM + Unsaturable",2.91 µM
same,microsomal CLint,[9]; [12],1.69 µL/min/mg
same,microsomal CLint,"[9]; liver S9, pH 7.5, CLint total, Dog, (vmax / KM) + CL",75.2 µL/min/mg
same,microsomal CLint,"[9]; liver S9, pH 7.5, CLint,app",75.2 µL/min/mg
same,microsomal CLint,[9]; [13],84 µL/min/mg
same,Measured blood partitioning / Human blood partitioning,[10],0.6
same,Plasma concentration (Cp),[10]; Mean,1970 nM
same,Whole blood concentration (Cb),[10]; Mean,1.08 µM
same,Plasma concentration (Cp),[10]; individual replicates,2010 nM and 2000 nM and 1900 nM and 1950 nM
same,Whole blood concentration (Cb),[10]; individual replicates,1.11 µM and 1.06 µM and 1.1 µM
same,CC50 at 5 days,[11],> 100000 nM
same,CC50 at 5 days,[11]; MRC-5 cells,> 100000 nM
same,CC50 at 5 days,"[11]; MRC-5 cells, with CP-100356 (efflux inhibitor) 0.5 µM",> 100000 nM
